IC50 data for 6 molecules are collected here from patent publication US9962341B2, “Active pharmaceutical ingredient (API) comprising cannabinoids for use in the treatment of cancer” (GW Pharma Limited, priority 2014, dated 2018).

What all share (type): cell-based
The subject of one experiment is PANC-1. Put plainly: Cell viability (CellTiter-Blue, 72 h), PANC-1 pancreatic cancer cells. The following applies: Homo sapiens, PANC-1, 1% FBS. Here is the method: (§1) The following cell lines were tested in this example: Lung Cancer (A549, NCI-H460); Pancreatic cancer (PANC1, Mia-Pa-Ca-2); Melanoma (WM115, A375); Ovarian cancer (OVCAR3, SKOV3); Gastric cancer (MKN45, HGC-27); Renal cancer (ACHN) and Bladder Cancer (RT112).
(§2) Each tumour cell line was maintained in vitro in RPMI 1640+10% heat inactivated FBS and 2 mM L-glutamine (growth media) at 37° C. in 5% CO2 and humidified conditions. The cells were harvested, washed, re-suspended into growth medium and counted. The cells were re-suspended into assay media (RPMI 1640+5% heat inactivated FBS+ and 2 mM L-glutamine) at 4×10^4 cells/ml (dependent upon cell type) and plated into the middle 240 wells of 384 well tissue culture plates (Corning CellBind, black-wall plates) 25 μl/well aliquots; 50 μl of growth media was aliquoted into the outer wells. There were 3 plates for each cell line.
(§3) The plates were incubated overnight at 37° C., in 5% humidified CO2.
(§4) The phytocannabinoid test compounds were prepared in 100% DMSO vehicle at a stock concentration of 20 and 40 mM.
(§5) Starting with the 20 mM stock in DMSO, this was serially diluted (2 fold) in DMSO in a 96-well plate, to 20 (no dilution), 10, 5, 2.5, 1.25, 0.625, 0.315, 0.157 and […]. Following this, 10 ul of each compound dilution was diluted into 990 ul of 1% (v/v) FBS media in a deep well block making the final concentrations of 200, 100, 50, 25, 12.5, 6.25, 3.125, 1.56 and 0.79 μM (2× final assay concentrations and 1% DMSO).
(§6) An equal volume of each cannabinoid in the combination (stock concentration 40 mM) was mixed together to make a stock of 20 mM of each cannabinoid in DMSO. This was serially diluted (2 fold) in DMSO in a 96-well plate, to 20 (no dilution), 10, 5, 2.5, 1.25, 0.625, 0.315, 0.157 and […]. Following this, 10 ul of each combination dilution was diluted into 990 ul of 1% (v/v) FBS media in a deep well block making the final concentrations of 200, 100, 50, 25, 12.5, 6.25, 3.125, 1.56 and 0.79 μM (2× final assay concentrations and 1% DMSO).
Gemcitabine SOC was prepared in 100% DMSO to give a stock concentration of 20 mM. This was then serially diluted (3 fold) in DMSO in a 96-well plate, to 20 (no dilution), 6.6, 2.2, 0.741, 0.247, 0.082, 0.027, 0.009 and 0.003 mM. Following this, 10 ul of each dilution was further diluted into 990 ul of 1% (v/v) FBS media making the final concentrations of 200 (no dilution), 66.66, 22.22, 7.41, 2.47, 0.82, 0.27, 0.09, 0.03 μM (2× final assay concentrations and 1% DMSO).
(§7) The plates were incubated for 72 h at 37° C. in 5% humidified CO2. To develop the plates, at 72 h, 10 μl of CellTiter-Blue™ reagent was added to each test/blank well.
(§8) The plates were incubated at 37° C., 5% humidified CO2. Fluorescence was measured using a Flex II Station plate reader (570 nm excitation wavelength, 600 nm emission wavelength, 590 nm cut-off) after 3 h.
(§9) The phytocannabinoid compounds CBD, CBGA, CBG, CBDA, THCV and THC were tested on a panel of lung (A549, NCI-H460), pancreatic (PANC1, Mia-Pa-Ca-2), melanoma (WM115, A375), ovarian (OVCAR3, SKOV3), gastric (MKN45, HGC-27), renal (ACHN) and bladder (RT112) cancer cell lines according to the protocol for 72 h in media containing 1% FBS.
(§10) The IC50 values for each phytocannabinoid and combination of CBD with the other phytocannabinoids was calculated for each cell line. The raw data values expressed in relative fluorescent units were normalised to the vehicle for each individual plate and any reduction in fluorescence indicated a decrease in viability.
(§11) This calculation was as described in Example 1 above.

Another experiment relates to OVCAR3. Put plainly: Cell viability (CellTiter-Blue, 72 h), OVCAR3 ovarian cancer cells. The conditions noted are these: Homo sapiens, OVCAR-3. As for the experimental part: as §1, §2, §3, §4, §5, §6
(§12) Cisplatin (stock of 1 mg/ml=3.33 mM in water) was diluted in 1% FBS media to give a stock concentration of 1 mM. This was then diluted in 1% FBS media from the stock solution to 200 μM, then serially diluted (3-fold) in 1% FBS media to 200 (no dilution), 66.66, 22.22, 7.41, 2.47, 0.82, 0.27, 0.09, 0.03 μM (2× final assay concentrations; no DMSO).
as §7, §8, §9, §10, §11

For the next experiment, the system named is SKOV3. Put plainly: Cell viability (CellTiter-Blue, 72 h), SKOV3 ovarian cancer cells. The conditions noted are these: Homo sapiens, SK-OV-3. As for the experimental part:
as §1, §2, §3, §4, §5, §6, §12, §7, §8, §9, §10, §11
Background: Alamar Blue is a resazurin reagent that responds to reducing activity.

A further experiment has as its system RT112. Put plainly: Cell viability (CellTiter-Blue, 72 h), RT112 bladder cancer cells. The conditions noted are these: Homo sapiens, RT-112. Here is the method: as §1, §2, §3, §4, §5, §6, §12, §7, §8, §9, §10, §11
The mark [1] stands for this setting: 72 h, read-out: Cell line IC50 value.
[2] abbreviates: read-out: Dm (median effect dose).
Where [3] appears, read: OVCAR3, 1% FBS, 72 h, read-out: Cell line IC50 value.
Where [4] appears, read: OVCAR3 cells, 1% FBS, read-out: Dm (potency, median effect).
Where [5] appears, read: SKOV3, 1% FBS, 72 h, read-out: Cell line IC50 value.
Where [6] appears, read: SKOV3 cells, 1% FBS, read-out: Dm (potency, median effect).
[7] abbreviates: RT112, 1% FBS, 72 h, read-out: Cell line IC50 value.
The mark [8] stands for this setting: RT112 cells, 1% FBS, read-out: Dm (potency, median effect).

Molecules are shown by their SMILES. pIC50: −log10 of the molar value. Like-named read-outs stand apart in the source and are kept apart here.

Regarding `C=C(C)[C@@H]1CCC(C)=C[C@H]1c1c(O)cc(CCCCC)cc1O` [CBD, Cannabidiol], the pIC50 is 5.52 in the experiment with PANC-1 (setting [1]); 5.53 with PANC-1 (setting [2]); 5.55 with OVCAR3 (setting [3]); 5.67 with OVCAR3 (setting [4]); 5.51 with SKOV3 (setting [5]); 5.50 in the experiment on SKOV3 (setting [6]). Further, the pIC50 in the experiment on RT112 (setting [7]) is 5.70; in the experiment on RT112 (setting [8]) it was 5.75.

`C=C(C)[C@@H]1CCC(C)=C[C@H]1c1c(O)cc(CCCCC)c(C(=O)O)c1O` [CBDA, Cannabidiolic acid]: the pIC50 was 4.88 in the experiment with PANC-1 (setting [1]); 4.90 in the experiment with PANC-1 (setting [2]); 5.17 in the experiment on OVCAR3 (setting [3]); 5.26 in the experiment on OVCAR3 (setting [4]); 5.89 with SKOV3 (setting [5]); 4.98 in the experiment with SKOV3 (setting [6]). Moreover, the pIC50 in the experiment on RT112 (setting [7]) was 5.09; in the experiment with RT112 (setting [8]), 5.20.

In the case of `CCCCCc1cc(O)c(C/C=C(\C)CCC=C(C)C)c(O)c1` [CBG, Cannabigerol], the pIC50 is 5.51 with PANC-1 (setting [1]); 5.54 in the experiment with PANC-1 (setting [2]); 5.28 in the experiment on OVCAR3 (setting [3]); 5.36 in the experiment on OVCAR3 (setting [4]); 5.26 in the experiment on SKOV3 (setting [5]); 5.32 in the experiment with SKOV3 (setting [6]). Besides, the pIC50 is 5.60 in the experiment on RT112 (setting [7]) and 5.67 with RT112 (setting [8]).

For the molecule `CCCCCc1cc(O)c(C/C=C(\C)CCC=C(C)C)c(O)c1C(=O)O` [CBGA, Cannabigerolic acid], the pIC50 with PANC-1 (setting [1]) is 5.07; with PANC-1 (setting [2]), 5.05; in the experiment on OVCAR3 (setting [3]), 5.21; in the experiment on OVCAR3 (setting [4]) it was 5.19; in the experiment with SKOV3 (setting [5]) it was 5.10; in the experiment on SKOV3 (setting [6]) it was 5.06. Moreover, the pIC50 in the experiment with RT112 (setting [7]) and with RT112 (setting [8]) was 5.01 each time.

With `CCCCCc1cc(O)c2c(c1)OC(C)(C)[C@@H]1CCC(C)=C[C@@H]21` [THC, Tetrahydrocannabinol, reference compound], the pIC50 in the experiment with PANC-1 (setting [1]) is 5.52; in the experiment on PANC-1 (setting [2]) it was 5.50; in the experiment on OVCAR3 (setting [3]) it was 5.23; with OVCAR3 (setting [4]) it was 5.35; with SKOV3 (setting [5]) it was 5.28; with SKOV3 (setting [6]), 5.34. Also, the pIC50 in the experiment with RT112 (setting [7]) is 5.44; in the experiment on RT112 (setting [8]), 5.51.

In the case of `CCCc1cc(O)c2c(c1)OC(C)(C)[C@@H]1CCC(C)=C[C@@H]21` [THCV, Tetrahydrocannabivarin], the pIC50 in the experiment with PANC-1 (setting [1]) was 5.19; in the experiment with PANC-1 (setting [2]), 5.19; in the experiment with OVCAR3 (setting [3]) it was 5.19; with OVCAR3 (setting [4]) it was 5.19; with SKOV3 (setting [5]) it was 5.19; with SKOV3 (setting [6]) it was 5.18. Also, the pIC50 is 5.33 in the experiment on RT112 (setting [7]) and 5.32 in the experiment with RT112 (setting [8]).
